Source: ChEMBL document CHEMBL4507269, “Data for DCP probe BAY-386” (2021)

Assays:
[1] = target: Eukaryotic translation initiation factor 2-alpha kinase 1 (Homo sapiens) (UniProt Q9BQI3); details: Compound concentration 1000.0 nM
[2] = target: Cyclin-dependent kinase-like 2 (Homo sapiens) (UniProt Q92772); details: Compound concentration 1000.0 nM
[3] = target: Uncharacterized serine/threonine-protein kinase SBK3 (Homo sapiens) (UniProt P0C264); details: Compound concentration 1000.0 nM
[4] = target: Mitogen-activated protein kinase 15 (Homo sapiens) (UniProt Q8TD08); details: Compound concentration 1000.0 nM
[5] = target: ALK tyrosine kinase receptor (Homo sapiens) (UniProt Q9UM73); details: Compound concentration 1000.0 nM
[6] = target: Interleukin-1 receptor-associated kinase 4 (Homo sapiens) (UniProt Q9NWZ3); details: Compound concentration 1000.0 nM
[7] = target: Wee1-like protein kinase 2 (Homo sapiens) (UniProt P0C1S8); details: Compound concentration 1000.0 nM
[8] = target: Macrophage colony-stimulating factor 1 receptor (Homo sapiens) (UniProt P07333); details: Compound concentration 1000.0 nM
[9] = target: Aurora kinase B (Homo sapiens) (UniProt Q96GD4); details: Compound concentration 1000.0 nM
[10] = target: Protein kinase C theta type (Homo sapiens) (UniProt Q04759); details: Compound concentration 1000.0 nM
[11] = target: Mitogen-activated protein kinase kinase kinase kinase 4 (Homo sapiens) (UniProt O95819); details: Compound concentration 1000.0 nM
[12] = target: Fibroblast growth factor receptor 1 (Homo sapiens) (UniProt P11362); details: Compound concentration 1000.0 nM
[13] = target: Serine/threonine-protein kinase PAK 5 (Homo sapiens) (UniProt Q9P286); details: Compound concentration 1000.0 nM
[14] = target: Serine/threonine-protein kinase N2 (Homo sapiens) (UniProt Q16513); details: Compound concentration 1000.0 nM
[15] = tested on: Epidermal growth factor receptor (Homo sapiens), P00533 [UNDEFINED MUTATION]; details: Compound concentration 1000.0 nM
[16] = target: MAP kinase-interacting serine/threonine-protein kinase 1 (Homo sapiens) (UniProt Q9BUB5); details: Compound concentration 1000.0 nM
[17] = target: Citron Rho-interacting kinase (Homo sapiens) (UniProt O14578); details: Compound concentration 1000.0 nM
[18] = target: cGMP-dependent protein kinase 2 (Homo sapiens) (UniProt Q13237); details: Compound concentration 1000.0 nM
[19] = target: D(1A) dopamine receptor (Homo sapiens) (UniProt P21728); assay: D1 (h) Eurofins-Cerep Cellular and Nuclear Receptor Functional Assays; details: Compound concentration 10.0 uM
[20] = target: Serine/threonine-protein kinase PAK 2 (Homo sapiens) (UniProt Q13177); details: Compound concentration 1000.0 nM
[21] = target: Ephrin type-A receptor 8 (Homo sapiens) (UniProt P29322); details: Compound concentration 1000.0 nM
[22] = target: Serine/threonine-protein kinase TAO1 (Homo sapiens) (UniProt Q7L7X3); details: Compound concentration 1000.0 nM
[23] = target: Aurora kinase A (Homo sapiens) (UniProt O14965); details: Compound concentration 1000.0 nM
[24] = target: Ephrin type-A receptor 5 (Homo sapiens) (UniProt P54756); details: Compound concentration 1000.0 nM
[25] = tested on: Epidermal growth factor receptor (Homo sapiens), P00533 [L861Q]; details: Compound concentration 1000.0 nM
[26] = target: Serine/threonine-protein kinase SBK1 (Homo sapiens) (UniProt Q52WX2); details: Compound concentration 1000.0 nM
[27] = target: Tyrosine-protein kinase JAK3 (Homo sapiens) (UniProt P52333); details: Compound concentration 1000.0 nM
[28] = tested on: Tyrosine-protein kinase ABL1 (Homo sapiens), P00519 [H396P]; details: Compound concentration 1000.0 nM
[29] = target: Serine/threonine-protein kinase Nek3 (Homo sapiens) (UniProt P51956); details: Compound concentration 1000.0 nM
[30] = target: Ribosomal protein S6 kinase alpha-5 (Homo sapiens) (UniProt O75582); details: Compound concentration 1000.0 nM
[31] = target: MAP/microtubule affinity-regulating kinase 4 (Homo sapiens) (UniProt Q96L34); details: Compound concentration 1000.0 nM
[32] = target: Cyclin-dependent kinase 4 (Homo sapiens) (UniProt P11802); details: Compound concentration 1000.0 nM
[33] = target: 1-phosphatidylinositol 3-phosphate 5-kinase (Homo sapiens) (UniProt Q9Y2I7); details: Compound concentration 1000.0 nM
[34] = target: Peripheral plasma membrane protein CASK (Homo sapiens) (UniProt O14936); details: Compound concentration 1000.0 nM
[35] = target: Mast/stem cell growth factor receptor Kit (Homo sapiens) (UniProt P10721); details: Compound concentration 1000.0 nM
[36] = target: Cyclin-dependent kinase 7 (Homo sapiens) (UniProt P50613); details: Compound concentration 1000.0 nM
[37] = target: Platelet-derived growth factor receptor beta (Homo sapiens) (UniProt P09619); details: Compound concentration 1000.0 nM
[38] = target: Serine/threonine-protein kinase NIM1 (Homo sapiens) (UniProt Q8IY84); details: Compound concentration 1000.0 nM
[39] = tested on: Mast/stem cell growth factor receptor Kit (Homo sapiens), P10721 [A829P]; details: Compound concentration 1000.0 nM
[40] = target: Myotonin-protein kinase (Homo sapiens) (UniProt Q09013); details: Compound concentration 1000.0 nM
[41] = target: Vascular endothelial growth factor receptor 2 (Homo sapiens) (UniProt P35968); details: Compound concentration 1000.0 nM
[42] = target: Ribosomal protein S6 kinase alpha-1 (Homo sapiens) (UniProt Q15418); details: Compound concentration 1000.0 nM
[43] = target: Myosin light chain kinase 2, skeletal/cardiac muscle (Homo sapiens) (UniProt Q9H1R3); details: Compound concentration 1000.0 nM
[44] = tested on: Receptor-type tyrosine-protein kinase FLT3 (Homo sapiens), P36888 [D835H]; details: Compound concentration 1000.0 nM
[45] = target: Dual specificity tyrosine-phosphorylation-regulated kinase 1A (Homo sapiens) (UniProt Q13627); details: Compound concentration 1000.0 nM

D(1A) dopamine receptor (Homo sapiens), sequence (P21728 whole entry): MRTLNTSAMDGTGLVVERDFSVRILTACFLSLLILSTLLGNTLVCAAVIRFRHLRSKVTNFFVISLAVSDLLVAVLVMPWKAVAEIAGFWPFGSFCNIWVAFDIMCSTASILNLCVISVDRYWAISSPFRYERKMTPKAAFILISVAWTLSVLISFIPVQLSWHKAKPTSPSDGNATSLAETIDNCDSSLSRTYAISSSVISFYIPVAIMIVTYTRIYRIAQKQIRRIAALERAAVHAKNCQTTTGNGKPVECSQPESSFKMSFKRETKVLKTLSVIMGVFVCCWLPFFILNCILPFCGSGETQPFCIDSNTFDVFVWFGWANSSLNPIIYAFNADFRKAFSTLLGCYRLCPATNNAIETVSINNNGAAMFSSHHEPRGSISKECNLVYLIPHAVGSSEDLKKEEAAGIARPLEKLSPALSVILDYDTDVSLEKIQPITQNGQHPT
Cyclin-dependent kinase-like 2 (Homo sapiens), sequence (Q92772 whole entry): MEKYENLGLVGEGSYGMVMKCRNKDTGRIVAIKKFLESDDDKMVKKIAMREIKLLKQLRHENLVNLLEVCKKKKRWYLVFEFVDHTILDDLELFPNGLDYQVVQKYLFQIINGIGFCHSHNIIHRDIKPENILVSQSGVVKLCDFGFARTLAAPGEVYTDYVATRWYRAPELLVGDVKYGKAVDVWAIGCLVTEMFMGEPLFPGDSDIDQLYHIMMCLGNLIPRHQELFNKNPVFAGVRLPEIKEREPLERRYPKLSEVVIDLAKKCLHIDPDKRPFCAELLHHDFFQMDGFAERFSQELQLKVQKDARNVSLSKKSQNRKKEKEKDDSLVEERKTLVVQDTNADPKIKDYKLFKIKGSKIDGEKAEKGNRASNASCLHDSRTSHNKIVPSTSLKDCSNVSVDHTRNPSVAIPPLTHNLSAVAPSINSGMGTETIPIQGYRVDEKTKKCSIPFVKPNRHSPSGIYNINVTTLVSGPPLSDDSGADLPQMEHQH
Serine/threonine-protein kinase SBK1 (Homo sapiens), sequence (Q52WX2 whole entry): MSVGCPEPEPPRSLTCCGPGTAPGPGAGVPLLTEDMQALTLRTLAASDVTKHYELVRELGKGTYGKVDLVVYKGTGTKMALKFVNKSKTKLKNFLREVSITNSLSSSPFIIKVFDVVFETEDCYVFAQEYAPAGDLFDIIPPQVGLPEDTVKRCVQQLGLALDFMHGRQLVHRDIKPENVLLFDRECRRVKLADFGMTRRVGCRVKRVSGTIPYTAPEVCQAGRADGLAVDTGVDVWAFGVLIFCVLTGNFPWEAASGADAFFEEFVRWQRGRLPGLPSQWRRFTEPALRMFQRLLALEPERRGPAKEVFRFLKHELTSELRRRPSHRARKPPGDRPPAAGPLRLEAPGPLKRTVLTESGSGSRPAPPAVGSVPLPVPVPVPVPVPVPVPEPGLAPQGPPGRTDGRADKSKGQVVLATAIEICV
Tyrosine-protein kinase JAK3 (Homo sapiens), sequence (P52333 whole entry): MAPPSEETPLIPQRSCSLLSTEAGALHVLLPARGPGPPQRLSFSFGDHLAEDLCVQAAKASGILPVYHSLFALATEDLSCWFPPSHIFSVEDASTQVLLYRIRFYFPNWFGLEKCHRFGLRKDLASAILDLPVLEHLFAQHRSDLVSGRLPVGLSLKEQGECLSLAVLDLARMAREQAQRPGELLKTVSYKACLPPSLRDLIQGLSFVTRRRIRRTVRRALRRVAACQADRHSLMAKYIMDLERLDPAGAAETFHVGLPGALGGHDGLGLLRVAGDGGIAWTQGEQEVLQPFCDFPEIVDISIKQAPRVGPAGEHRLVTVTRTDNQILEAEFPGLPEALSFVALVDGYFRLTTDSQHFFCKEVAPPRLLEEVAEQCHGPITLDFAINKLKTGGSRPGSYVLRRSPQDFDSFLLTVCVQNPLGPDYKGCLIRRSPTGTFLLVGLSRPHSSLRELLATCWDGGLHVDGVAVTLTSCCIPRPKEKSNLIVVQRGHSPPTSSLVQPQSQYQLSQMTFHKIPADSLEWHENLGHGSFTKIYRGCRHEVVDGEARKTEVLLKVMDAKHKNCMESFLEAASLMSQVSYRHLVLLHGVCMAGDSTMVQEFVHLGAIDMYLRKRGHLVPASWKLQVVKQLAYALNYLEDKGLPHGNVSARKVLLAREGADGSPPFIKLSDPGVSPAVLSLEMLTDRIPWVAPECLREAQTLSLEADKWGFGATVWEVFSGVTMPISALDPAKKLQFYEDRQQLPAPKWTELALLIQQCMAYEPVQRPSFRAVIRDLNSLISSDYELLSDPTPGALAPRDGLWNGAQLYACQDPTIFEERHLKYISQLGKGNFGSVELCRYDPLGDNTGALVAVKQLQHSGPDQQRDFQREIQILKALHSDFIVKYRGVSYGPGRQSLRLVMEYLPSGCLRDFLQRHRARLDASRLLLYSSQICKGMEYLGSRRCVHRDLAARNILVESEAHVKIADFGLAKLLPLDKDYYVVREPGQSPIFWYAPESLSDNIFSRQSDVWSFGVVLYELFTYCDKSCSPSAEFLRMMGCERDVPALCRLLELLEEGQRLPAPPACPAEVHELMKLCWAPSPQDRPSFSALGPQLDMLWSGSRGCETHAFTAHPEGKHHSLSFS
Serine/threonine-protein kinase PAK 2 (Homo sapiens), sequence (Q13177 whole entry): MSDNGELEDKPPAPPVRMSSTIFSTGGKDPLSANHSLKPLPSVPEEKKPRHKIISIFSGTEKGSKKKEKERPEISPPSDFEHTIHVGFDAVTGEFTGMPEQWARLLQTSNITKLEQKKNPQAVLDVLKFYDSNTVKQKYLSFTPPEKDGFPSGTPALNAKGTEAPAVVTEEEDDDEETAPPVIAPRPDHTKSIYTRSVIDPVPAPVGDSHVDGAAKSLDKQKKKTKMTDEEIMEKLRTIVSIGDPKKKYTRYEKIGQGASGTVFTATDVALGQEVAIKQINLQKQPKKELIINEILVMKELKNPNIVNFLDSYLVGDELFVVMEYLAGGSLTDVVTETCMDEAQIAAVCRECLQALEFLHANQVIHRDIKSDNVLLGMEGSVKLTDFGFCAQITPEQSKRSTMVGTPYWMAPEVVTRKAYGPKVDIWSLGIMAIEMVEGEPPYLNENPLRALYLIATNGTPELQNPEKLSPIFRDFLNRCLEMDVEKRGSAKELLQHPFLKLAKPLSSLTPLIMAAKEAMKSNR
Uncharacterized serine/threonine-protein kinase SBK3 (Homo sapiens), sequence (P0C264 whole entry): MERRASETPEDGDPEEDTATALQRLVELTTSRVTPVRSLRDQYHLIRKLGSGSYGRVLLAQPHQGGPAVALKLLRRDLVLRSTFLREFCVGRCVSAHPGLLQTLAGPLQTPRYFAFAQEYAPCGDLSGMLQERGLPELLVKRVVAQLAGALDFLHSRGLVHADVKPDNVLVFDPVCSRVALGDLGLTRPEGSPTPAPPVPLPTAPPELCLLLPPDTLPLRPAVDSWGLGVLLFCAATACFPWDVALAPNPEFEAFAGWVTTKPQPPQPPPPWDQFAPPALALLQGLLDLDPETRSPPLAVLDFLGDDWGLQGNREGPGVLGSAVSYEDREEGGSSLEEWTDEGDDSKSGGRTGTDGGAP
Mitogen-activated protein kinase kinase kinase kinase 4 (Homo sapiens), sequence (O95819 2-1239 limits assumed): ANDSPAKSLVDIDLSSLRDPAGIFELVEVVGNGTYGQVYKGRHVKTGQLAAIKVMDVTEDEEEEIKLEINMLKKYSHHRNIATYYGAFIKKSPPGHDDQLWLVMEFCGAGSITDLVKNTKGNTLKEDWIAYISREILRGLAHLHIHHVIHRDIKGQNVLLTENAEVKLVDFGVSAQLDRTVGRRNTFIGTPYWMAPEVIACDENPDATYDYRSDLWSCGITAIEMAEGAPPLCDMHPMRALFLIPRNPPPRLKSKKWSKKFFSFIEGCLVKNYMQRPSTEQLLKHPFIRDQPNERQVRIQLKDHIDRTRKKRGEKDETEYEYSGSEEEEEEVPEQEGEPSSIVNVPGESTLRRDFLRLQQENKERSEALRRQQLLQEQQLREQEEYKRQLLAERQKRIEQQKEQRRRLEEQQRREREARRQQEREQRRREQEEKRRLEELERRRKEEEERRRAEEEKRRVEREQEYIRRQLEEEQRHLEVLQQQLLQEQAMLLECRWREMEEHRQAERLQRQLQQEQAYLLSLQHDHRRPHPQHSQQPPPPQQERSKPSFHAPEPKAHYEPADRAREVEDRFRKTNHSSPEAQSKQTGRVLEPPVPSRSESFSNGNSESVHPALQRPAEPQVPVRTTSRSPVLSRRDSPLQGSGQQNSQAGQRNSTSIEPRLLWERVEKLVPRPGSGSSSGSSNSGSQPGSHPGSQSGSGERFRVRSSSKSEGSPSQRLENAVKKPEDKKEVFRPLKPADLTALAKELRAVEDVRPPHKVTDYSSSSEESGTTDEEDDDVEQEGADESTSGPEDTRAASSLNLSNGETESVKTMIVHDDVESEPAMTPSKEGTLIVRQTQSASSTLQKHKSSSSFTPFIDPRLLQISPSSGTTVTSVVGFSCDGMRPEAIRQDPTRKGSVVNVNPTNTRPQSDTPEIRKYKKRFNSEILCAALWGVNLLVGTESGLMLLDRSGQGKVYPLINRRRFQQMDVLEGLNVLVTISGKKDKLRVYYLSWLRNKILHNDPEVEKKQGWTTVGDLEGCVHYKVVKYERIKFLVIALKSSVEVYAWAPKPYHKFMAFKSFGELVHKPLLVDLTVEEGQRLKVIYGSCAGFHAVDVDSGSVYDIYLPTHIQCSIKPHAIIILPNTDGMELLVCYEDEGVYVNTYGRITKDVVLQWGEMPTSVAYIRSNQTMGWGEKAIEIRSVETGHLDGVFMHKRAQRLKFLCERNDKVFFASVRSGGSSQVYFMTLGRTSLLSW
Aurora kinase A (Homo sapiens), sequence (O14965 whole entry): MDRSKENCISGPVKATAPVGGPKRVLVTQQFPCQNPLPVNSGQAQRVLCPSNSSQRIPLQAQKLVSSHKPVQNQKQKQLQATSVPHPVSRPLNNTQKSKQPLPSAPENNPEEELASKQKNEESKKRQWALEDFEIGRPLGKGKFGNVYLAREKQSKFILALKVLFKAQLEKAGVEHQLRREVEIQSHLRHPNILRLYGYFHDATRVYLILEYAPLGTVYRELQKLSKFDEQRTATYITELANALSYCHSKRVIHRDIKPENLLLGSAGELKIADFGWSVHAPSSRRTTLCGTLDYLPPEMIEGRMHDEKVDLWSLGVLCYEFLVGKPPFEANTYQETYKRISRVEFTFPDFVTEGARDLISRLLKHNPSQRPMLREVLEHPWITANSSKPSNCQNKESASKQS

Compound: O=C(N1CCS(=O)(=O)CC1)N1C[C@H](c2ccc(OC(F)(F)F)cc2)C[C@H](c2nc(C3CC3)no2)C1 [BAY-386]
- residual activity [1]: 90%
- residual activity [2]: 100%
- residual activity [3]: 98%
- residual activity [4]: 100%
- residual activity [5]: 100%
- residual activity [6]: 80%
- residual activity [7]: 100%
- residual activity [8]: 100%
- residual activity [9]: 100%
- residual activity [10]: 86%
- residual activity [11]: 100%
- residual activity [12]: 100%
- residual activity [13]: 100%
- residual activity [14]: 100%
- residual activity [15]: 55%
- residual activity [16]: 100%
- residual activity [17]: 100%
- residual activity [18]: 100%
- % Inhibition of Control Agonist Response (Mean n=2) [19]: -31.6%
- % of Control Agonist Response (Mean n=2) [19]: -1.4%
- residual activity [20]: 90%
- residual activity [21]: 100%
- residual activity [22]: 100%
- residual activity [23]: 100%
- residual activity [24]: 96%
- residual activity [25]: 68%
- residual activity [26]: 90%
- residual activity [27]: 100%
- residual activity [28]: 100%
- residual activity [29]: 100%
- residual activity [30]: 100%
- residual activity [31]: 100%
- residual activity [32]: 18%
- residual activity [33]: 100%
- residual activity [34]: 100%
- residual activity [35]: 100%
- residual activity [36]: 100%
- residual activity [37]: 100%
- residual activity [38]: 93%
- residual activity [39]: 100%
- residual activity [40]: 100%
- residual activity [41]: 88%
- residual activity [42]: 100%
- residual activity [43]: 100%
- residual activity [44]: 92%
- residual activity [45]: 100%

Compound: Cc1noc([C@H]2C[C@@H](c3ccc(C(F)(F)F)cc3)CN(C(=O)N3CCS(=O)(=O)C3)C2)n1 [BAY-448]
- residual activity [1]: 100%
- residual activity [2]: 100%
- residual activity [3]: 84%
- residual activity [4]: 100%
- residual activity [5]: 100%
- residual activity [6]: 83%
- residual activity [7]: 100%
- residual activity [8]: 100%
- residual activity [9]: 100%
- residual activity [10]: 87%
- residual activity [11]: 100%
- residual activity [12]: 100%
- residual activity [13]: 100%
- residual activity [14]: 100%
- residual activity [15]: 84%
- residual activity [16]: 99%
- residual activity [17]: 98%
- residual activity [18]: 100%
- % Inhibition of Control Agonist Response (Mean n=2) [19]: 13.9%
- % of Control Agonist Response (Mean n=2) [19]: -1.2%
- residual activity [20]: 87%
- residual activity [21]: 100%
- residual activity [22]: 100%
- residual activity [23]: 85%
- residual activity [24]: 100%
- residual activity [25]: 78%
- residual activity [26]: 100%
- residual activity [27]: 100%
- residual activity [28]: 100%
- residual activity [29]: 73%
- residual activity [30]: 85%
- residual activity [31]: 84%
- residual activity [32]: 100%
- residual activity [33]: 100%
- residual activity [34]: 93%
- residual activity [35]: 84%
- residual activity [36]: 89%
- residual activity [37]: 100%
- residual activity [38]: 100%
- residual activity [39]: 100%
- residual activity [40]: 100%
- residual activity [41]: 100%
- residual activity [42]: 100%
- residual activity [43]: 100%
- residual activity [44]: 100%
- residual activity [45]: 100%
